Results published in PubChem BioAssay AID2060885 (Molecular Pharmacology Branch, DTP, NCI, 2025).

Tested on: NCI-H23 complex spheroids with HUVEC/MSC, viability
Assay: Anticancer human tumor NCI-H23 cell line growth inhibition [RAS];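 further: spheroids exposed to compound for 7 days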;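 on viability, T/C: 100% = DMSO vehicle control viability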
Settings: for viability, T/C: stronger effect = lower value
How it was run: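 Agents were tested in combination matrices in half-log decrements from a top concentration at or near clinical Cmax (10 microM if undetermined). Targets were multi-cell spheroids of tumour lines plus HUVEC and MSC stromal cells.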

CCn1c(-c2cc(N3CCN(C)CC3)cnc2C(C)OC)c2c3cc(ccc31)-c1csc(n1)CC(NC(=O)C1CC1C)C(=O)N1CCCC(N1)C(=O)OCC(C)(C)C2 (centres undefined)
viability, T/C (compound 0.000949 µM): 45.5% [middle of 8 runs]
viability, T/C (compound 0.003 µM): 36.2% [middle of 8 runs]
viability, T/C (compound 0.00949 µM): 32.6% [middle of 8 runs]
viability, T/C (compound 0.03 µM): 29.9% [middle of 8 runs]
viability, T/C (compound 0.0949 µM): 22.1% [middle of 8 runs]
viability, T/C (compound 0.3 µM): 19.5% [middle of 8 runs]
IC50 (compound alone, run of 07/09/2024): < 0.949 nM

Cc1nc(N2CCC3(CC2)COC(C)C3N)c(CO)nc1Sc1ccnc(N)c1Cl (centres undefined) + CCn1c(-c2cc(N3CCN(C)CC3)cnc2C(C)OC)c2c3cc(ccc31)-c1csc(n1)CC(NC(=O)C1CC1C)C(=O)N1CCCC(N1)C(=O)OCC(C)(C)C2
IC50 (curve of first compound, second compound 0.000949 µM): < 31.6 nM
IC50 (curve of first compound, second compound 0.003 µM): < 31.6 nM
IC50 (curve of first compound, second compound 0.00949 µM): < 31.6 nM
IC50 (curve of first compound, second compound 0.03 µM): < 31.6 nM
IC50 (curve of first compound, second compound 0.0949 µM): < 31.6 nM
IC50 (curve of first compound, second compound 0.3 µM): < 31.6 nM
viability, T/C (second compound 0.000949 µM, first compound 0.0316 µM): 40.2%
viability, T/C (second compound 0.000949 µM, first compound 0.1 µM): 33.2%
viability, T/C (second compound 0.000949 µM, first compound 0.316 µM): 22.9%
viability, T/C (second compound 0.000949 µM, first compound 1 µM): 26.2%
viability, T/C (second compound 0.000949 µM, first compound 3.16 µM): 18.7%
viability, T/C (second compound 0.000949 µM, first compound 10 µM): 13.7%
viability, T/C (second compound 0.003 µM, first compound 0.0316 µM): 35%
viability, T/C (second compound 0.003 µM, first compound 0.1 µM): 25.4%
viability, T/C (second compound 0.003 µM, first compound 0.316 µM): 21.2%
viability, T/C (second compound 0.003 µM, first compound 1 µM): 21%
viability, T/C (second compound 0.003 µM, first compound 3.16 µM): 15%
viability, T/C (second compound 0.003 µM, first compound 10 µM): 10.5%
viability, T/C (second compound 0.00949 µM, first compound 0.0316 µM): 30.2%
viability, T/C (second compound 0.00949 µM, first compound 0.1 µM): 19.9%
viability, T/C (second compound 0.00949 µM, first compound 0.316 µM): 20%
viability, T/C (second compound 0.00949 µM, first compound 1 µM): 17.1%
viability, T/C (second compound 0.00949 µM, first compound 3.16 µM): 11.5%
viability, T/C (second compound 0.00949 µM, first compound 10 µM): 7.55%
viability, T/C (second compound 0.03 µM, first compound 0.0316 µM): 24.4%
viability, T/C (second compound 0.03 µM, first compound 0.1 µM): 22.5%
viability, T/C (second compound 0.03 µM, first compound 0.316 µM): 18%
viability, T/C (second compound 0.03 µM, first compound 1 µM): 14.1%
viability, T/C (second compound 0.03 µM, first compound 3.16 µM): 8.53%
viability, T/C (second compound 0.03 µM, first compound 10 µM): 7.44%
viability, T/C (second compound 0.0949 µM, first compound 0.0316 µM): 17.3%
viability, T/C (second compound 0.0949 µM, first compound 0.1 µM): 17.8%
viability, T/C (second compound 0.0949 µM, first compound 0.316 µM): 14.6%
viability, T/C (second compound 0.0949 µM, first compound 1 µM): 10.8%
viability, T/C (second compound 0.0949 µM, first compound 3.16 µM): 7.63%
viability, T/C (second compound 0.0949 µM, first compound 10 µM): 7.62%
viability, T/C (second compound 0.3 µM, first compound 0.0316 µM): 17.4%
viability, T/C (second compound 0.3 µM, first compound 0.1 µM): 17.8%
viability, T/C (second compound 0.3 µM, first compound 0.316 µM): 12.3%
viability, T/C (second compound 0.3 µM, first compound 1 µM): 9.93%
viability, T/C (second compound 0.3 µM, first compound 3.16 µM): 7.11%
viability, T/C (second compound 0.3 µM, first compound 10 µM): 5.57%
